What was measured:
Format in all cases: cell-based
human HNF-1α = assay: intracellular HNF-1α degradation test by adding calcium ionophore, HEK293T cells; conditions: 10 μg/mL, 4 hours
Description: After culturing a total number of 0.8×10^6 HEK293T cells for 5 hours at 37° C. under the presence of 5% CO2 (Petri dish with 60 mm diameter), 2 μg of an HNF-1α expression plasmid (see Example 7) was transfected thereto using the FuGENE 6 Transfection Reagent. After two days of culturing, the culture medium was replaced with a medium containing 10 μg/mL of ionophore A23187 (Sigma Chemical Co.) and 0.2% DMSO, and then the culturing was continued for 4 hours. For a negative control group, the culture medium was replaced with a medium containing 0.2% DMSO. After culturing for the pre-determined time, the cells were washed with cold PBS (−), suspended in 350 μl of hypotonic cell lysis buffer, and then left to stand on ice for 20 mins. The cells were disrupted with a homogenizer, and then centrifuged at 4° C. for 10 minutes at 600 g to collect the resulting supernatant as a cytoplasmic fraction and the precipitation as a nuclear fraction. The nuclear fraction was further suspended in solution comprising 2×PBS/1% Nonidet P-40/0.1% SDS, and disrupted by ultrasonication. The protein concentration of cell fractions was determined with Coomassie Plus Protein Assay Reagent Kit (Pierce Chemical Corp.). Each of the prepared samples was added to an equal volume of 2×SDS sample buffer, heated for 5 minutes, and then subjected to 5-20% SDS-PAGE for separation. […]

human IPF-1 = assay: intracellular IPF-1 degradation test by adding calcium ionophore, HEK293T cells; conditions: 10 μg/mL, 4 hours
Description: After culturing a total number of 0.5×10^6 HEK293T cells for 24 hours at 37° C. under the presence of 5% CO2 (Petri dish with 60 mm diameter), 2 μg of IPF-1 expression plasmid (see Example 10) was transfected thereto using the FuGENE 6 Transfection Reagent. After two days of culturing, the culture medium was replaced with a medium containing 10 μg/mL of ionophore A23187 (Sigma Chemical Co.), and the culturing was continued for further 4 hours. For a negative control group, the culture medium was replaced with a medium containing 0.2% DMSO. After culturing for the pre-determined time, the cells were washed with cold PBS (−), suspended in 350 μl of hypotonic cell lysis buffer, and then left to stand on ice for 20 mins. The cells were disrupted with a homogenizer, and then centrifuged at 4° C. for 10 minutes at 600 g to collect the supernatant as a cytoplasmic fraction and the precipitation as a nuclear fraction. The nuclear fraction was further suspended in solution comprising 2×PBS/1% Nonidet P40/0.1% SDS, and disrupted by ultrasonication. The nuclear fraction and cell fraction were added to an equal volume of 2×SDS sample buffer, heated for 5 minutes, and then subjected to 5-20% SDS-PAGE for separation. Detection of IPF-1 was conducted by the same method as in Example 10.

human HNF-4α = assay: intracellular HNF-4α degradation test by adding calcium ionophore, HEK293T cells; conditions: 10 μg/mL, 3 hours, nuclear and cytoplasmic fraction
Description: After culturing a total number of 0.7×10^6 HEK293T cells for 22 hours at 37° C. under the presence of 5% CO2 (Petri dish with 60 mm diameter), 2 μg of HNF-4α expression plasmid (see Example 2) was transfected thereto using the FuGENE 6 Transfection Reagent. After two days of culturing, the culture medium was replaced with a medium that contained 10 μg/mL of ionophore A23187 (4-bromo-calcium ionophore A23187, Sigma Chemical Co.), and the culturing was continued for 3 hours. For a negative control group, the culture medium was replaced with a medium to which dimethylsulfoxide (DMSO) was added instead of the ionophore. After culturing for the pre-determined time, the cells were washed with cold PBS (−), suspended in 300 μl of hypotonic cell lysis buffer (10 mM HEPES, pH 7.5/10 mM MgCl2/42 mM KCl/1 mM PMSF), and left to stand on ice for 20 mins. The cells were disrupted with a homogenizer, and then centrifuged at 4° C. for 10 minutes at 600 g, to collect the resulting supernatant as a cytoplasmic fraction and the precipitation as a nuclear fraction. The nuclear fraction was further suspended in solution comprising 2×PBS/1% Nonidet P-40/0.1% SDS, and disrupted by ultrasonication. An equal volume of 2×SDS sample buffer was added thereto, heated for 5 minutes, and then subjected to 5-20% SDS-PAGE for separation. Detection of HNF-4α was conducted by the same method as in Example 4.

4-bromo-calcium ionophore A23187
observed: degradation of HNF-1α by addition of ionophore (human HNF-1α) | degradation of IPF-1 by addition of ionophore (human IPF-1) | degradation of HNF-4α by adding ionophore (human HNF-4α)
